Measurements from patent US8614327B2 (Vertex Pharmaceuticals Incorporated, priority 2004, dated 2013).

Biological target: T1, ΔF508-CFTR (Homo sapiens, UniProt P13569, DEL508-508)
T1 construct: expressed in transfected cells
Assay: Membrane potential optical (FRET/VIPR) assay, identification of potentiator compounds
Format: cell-based
Settings: Table 3, assay not given; for % Activity: relative efficacy
How it was run: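 Double-addition potentiator screen: compound delivered in gluconate-substituted Cl^--free medium, membrane potential followed via CC2-DMPE/DiSBAC2(3) FRET on VIPR. Cells were ΔF508-CFTR-expressing NIH3T3 mouse fibroblasts, held 2 h at 37° C. then 24 h at 27° C. before assay.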

T1 sequence (P13569 with tags, fused parts or gaps DEL508-508): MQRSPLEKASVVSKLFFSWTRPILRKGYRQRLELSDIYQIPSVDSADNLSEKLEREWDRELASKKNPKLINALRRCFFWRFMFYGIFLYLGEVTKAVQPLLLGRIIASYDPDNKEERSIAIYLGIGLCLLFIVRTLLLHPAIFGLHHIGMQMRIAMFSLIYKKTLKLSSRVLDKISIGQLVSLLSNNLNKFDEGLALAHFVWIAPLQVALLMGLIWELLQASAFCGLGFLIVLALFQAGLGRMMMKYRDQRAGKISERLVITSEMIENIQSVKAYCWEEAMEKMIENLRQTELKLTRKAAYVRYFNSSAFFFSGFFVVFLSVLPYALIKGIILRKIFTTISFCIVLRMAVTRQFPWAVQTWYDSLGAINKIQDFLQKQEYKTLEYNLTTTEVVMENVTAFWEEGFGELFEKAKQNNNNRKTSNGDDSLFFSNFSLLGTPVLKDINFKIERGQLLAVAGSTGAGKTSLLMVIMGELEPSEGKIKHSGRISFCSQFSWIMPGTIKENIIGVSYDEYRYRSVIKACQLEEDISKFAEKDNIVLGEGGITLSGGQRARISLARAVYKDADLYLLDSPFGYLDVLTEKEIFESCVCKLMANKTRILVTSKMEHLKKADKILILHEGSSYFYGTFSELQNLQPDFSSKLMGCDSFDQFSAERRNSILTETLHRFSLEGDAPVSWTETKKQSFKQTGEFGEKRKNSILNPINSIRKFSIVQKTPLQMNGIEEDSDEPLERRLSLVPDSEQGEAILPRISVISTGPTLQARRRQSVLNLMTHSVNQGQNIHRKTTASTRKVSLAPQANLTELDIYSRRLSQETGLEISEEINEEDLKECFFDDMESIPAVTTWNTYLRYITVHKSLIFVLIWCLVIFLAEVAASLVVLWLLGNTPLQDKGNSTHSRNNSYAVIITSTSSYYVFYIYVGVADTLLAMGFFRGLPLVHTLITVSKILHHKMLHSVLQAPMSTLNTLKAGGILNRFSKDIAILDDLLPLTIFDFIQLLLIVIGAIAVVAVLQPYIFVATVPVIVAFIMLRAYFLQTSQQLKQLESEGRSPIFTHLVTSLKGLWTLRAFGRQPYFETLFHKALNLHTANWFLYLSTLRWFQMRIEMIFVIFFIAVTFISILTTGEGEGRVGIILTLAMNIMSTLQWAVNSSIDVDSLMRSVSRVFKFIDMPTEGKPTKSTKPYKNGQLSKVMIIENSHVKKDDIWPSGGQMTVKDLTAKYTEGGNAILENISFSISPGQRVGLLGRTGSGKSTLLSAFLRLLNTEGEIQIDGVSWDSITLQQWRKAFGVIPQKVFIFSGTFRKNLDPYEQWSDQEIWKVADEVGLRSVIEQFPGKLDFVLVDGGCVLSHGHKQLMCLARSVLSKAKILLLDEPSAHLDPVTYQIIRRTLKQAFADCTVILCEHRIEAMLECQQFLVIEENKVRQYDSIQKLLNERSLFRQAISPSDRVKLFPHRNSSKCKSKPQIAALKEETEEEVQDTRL

SMILES | EC50 [µM] | % Activity
COc1ccc(NC(=O)c2c[nH]c3ccccc3c2=O)c(OC)n1 [Compound 193, N-(2,6-dimethoxy-3-pyridyl)-4-oxo-1H-quinoline-3-carboxamide] | 10 to 25 | ++ (between 25% to 100%)
CC(C)(C)CC(=O)Nc1ccc(C(C)(C)C)c(NC(=O)c2c[nH]c3ccccc3c2=O)c1 [Compound 196, N-[5-(3,3-dimethylbutanoylamino)-2-tert-butyl-phenyl]-4-oxo-1H-quinoline-3-carboxamide] | < 10 | ++ (between 25% to 100%)
Cc1ccccc1-c1ccccc1NC(=O)c1c[nH]c2ccccc2c1=O [Compound 199, N-[2-(o-tolyl)phenyl]-4-oxo-1H-quinoline-3-carboxamide] | < 10 | ++ (between 25% to 100%)
O=C(Nc1ccc2c(c1)C(O)CCC2)c1c[nH]c2ccccc2c1=O (stereo not shown) [Compound 200, 1,4-dihydro-N-(1,2,3,4-tetrahydro-1-hydroxynaphthalen-7-yl)-4-oxoquinoline-3-carboxamide] | 10 to 25 | ++ (between 25% to 100%)
COc1ccc(Cl)cc1-c1ccccc1NC(=O)c1c[nH]c2ccccc2c1=O [Compound 202, N-[2-(5-chloro-2-methoxy-phenyl)phenyl]-4-oxo-1H-quinoline-3-carboxamide] | < 10 | ++ (between 25% to 100%)
O=C(Nc1ccc2ccn(Cc3ccccc3)c2c1)c1c[nH]c2ccccc2c1=O [Compound 203, N-(1-benzyl-1H-indol-6-yl)-4-oxo-1H-quinoline-3-carboxamide] | < 10 | ++ (between 25% to 100%)
CC1(C)CCOc2cc(NC(=O)c3c[nH]c4ccccc4c3=O)ccc21 [Compound 204, N-(4,4-dimethylchroman-7-yl)-4-oxo-1H-quinoline-3-carboxamide] | < 10 | ++ (between 25% to 100%)
COc1ccc(Oc2ccc(C(F)(F)F)cc2NC(=O)c2c[nH]c3ccccc3c2=O)cc1 [Compound 205, N-[2-(4-methoxyphenoxy)-5-(trifluoromethyl)phenyl]-4-oxo-1H-quinoline-3-carboxamide] | < 10 | ++ (between 25% to 100%)
Cc1cccc(Oc2ncccc2NC(=O)c2c[nH]c3ccccc3c2=O)c1C [Compound 206, N-[2-(2,3-dimethylphenoxy)-3-pyridyl]-4-oxo-1H-quinoline-3-carboxamide] | < 10 | ++ (between 25% to 100%)
CCOC(=O)Cc1c[nH]c2cc(NC(=O)c3c[nH]c4ccccc4c3=O)ccc12 [Compound 207, 2-[6-[(4-oxo-1H-quinolin-3-yl)carbonylamino]-1H-indol-3-yl]acetic acid ethyl ester] | < 10 | ++ (between 25% to 100%)
Cc1cc(C2C3CC4CC(C3)CC2C4)c(O)cc1NC(=O)c1c[nH]c2ccccc2c1=O (stereo not shown) [Compound 208, N-[4-(2-adamantyl)-5-hydroxy-2-methyl-phenyl]-4-oxo-1H-quinoline-3-carboxamide] | < 10 | ++ (between 25% to 100%)
COc1nc2ccccc2c(OC)c1C(=O)Nc1ccccc1-c1ccccc1 [Compound 210, 2,4-dimethoxy-N-(2-phenylphenyl)-quinoline-3-carboxamide] | 10 to 25 | ++ (between 25% to 100%)
COc1ccc(C(C)(C)C)cc1NC(=O)c1c[nH]c2ccccc2c1=O [Compound 211, N-(2-methoxy-5-tert-butyl-phenyl)-4-oxo-1H-quinoline-3-carboxamide] | < 10 | ++ (between 25% to 100%)
CC1=NN(c2cccc(NC(=O)c3c[nH]c4ccccc4c3=O)c2)C(=O)C1 [Compound 212, N-[3-(3-methyl-5-oxo-1,4-dihydropyrazol-1-yl)phenyl]-4-oxo-1H-quinoline-3-carboxamide] | 25 to 60 | + (<25%)
O=C(Nc1ccccc1-c1cc(Cl)ccc1Cl)c1c[nH]c2ccccc2c1=O [Compound 213, N-[2-(2,5-dichlorophenyl)phenyl]-4-oxo-1H-quinoline-3-carboxamide] | < 10 | ++ (between 25% to 100%)
CS(=O)(=O)Nc1cccc(NC(=O)c2c[nH]c3ccccc3c2=O)c1 [Compound 214, N-(3-methylsulfonylaminophenyl)-4-oxo-1H-quinoline-3-carboxamide] | – | ++ (between 25% to 100%)
O=C(Nc1ccccc1)c1c[nH]c2ccccc2c1=O [Compound 215, 4-Oxo-N-phenyl-1H-quinoline-3-carboxamide] | < 10 | ++ (between 25% to 100%)

Other lines, results leading:

EC50 [µM] | % Activity | SMILES
25 to 60 | + (<25%) | N#Cc1ccc(NC(=O)c2c[nH]c3ccccc3c2=O)cc1 [Compound 194, N-(4-cyanophenyl)-4-oxo-1H-quinoline-3-carboxamide]
25 to 60 | + (<25%) | Cc1ccc(NC(=O)c2c[nH]c3ccccc3c2=O)nc1 [Compound 195, N-(5-methyl-2-pyridyl)-4-oxo-1H-quinoline-3-carboxamide]
25 to 60 | + (<25%) | O=C(Nc1ccc(C(F)(F)F)nc1)c1c[nH]c2ccccc2c1=O [Compound 197, 4-oxo-N-[6-(trifluoromethyl)-3-pyridyl]-1H-quinoline-3-carboxamide]
< 10 | ++ (between 25% to 100%) | O=C(Nc1ccc(F)cc1)c1c[nH]c2ccccc2c1=O [Compound 198, N-(4-fluorophenyl)-4-oxo-1H-quinoline-3-carboxamide]
10 to 25 | + (<25%) | Cc1cccc(NC(=O)c2c[nH]c3ccccc3c2=O)c1C#N [Compound 201, N-(2-cyano-3-methyl-phenyl)-4-oxo-1H-quinoline-3-carboxamide]
10 to 25 | ++ (between 25% to 100%) | O=C(Nc1ccc(CO)cc1)c1c[nH]c2ccccc2c1=O [Compound 209, N-[4-(hydroxymethyl)phenyl]-4-oxo-1H-quinoline-3-carboxamide]
25 to 60 | + (<25%) | O=C(Nc1nc2ccccc2[nH]1)c1c[nH]c2ccccc2c1=O [Compound 216, N-(3H-benzoimidazol-2-yl)-4-oxo-1H-quinoline-3-carboxamide]
10 to 25 | ++ (between 25% to 100%) | O=C(Nc1ccc2[nH]ncc2c1)c1c[nH]c2ccccc2c1=O [Compound 217, N-(1H-indazol-5-yl)-4-oxo-1H-quinoline-3-carboxamide]
